Laboratory results taken from US9233964B2, “Sulfamide piperazine derivatives as protein tyrosine kinase inhibitors and pharmaceutical use therof” (LEO PHARMA A/S, priority 2011, dated 2016).

Assays:
Assay type in all cases: biochemical
[1] = biological target: T1, JAK1 (Homo sapiens, UniProt P23458); experiment: JAK kinase assay (HTRF, phosphorylation of synthetic peptide), JAK1; settings: catalytic domain, ATP at Km (7 μM); read-out: JAK1 kinase inhibitory activity (EC50)
T1 construct: JAK1 (aa 850-1154) and TYK2 (aa 871-1187) are expressed with an N-terminally fused GST-tag; GST (N); purchased Carna Biosciences, Inc; host or cells: baculovirus expression system
T1 sequence (P23458 850-1154): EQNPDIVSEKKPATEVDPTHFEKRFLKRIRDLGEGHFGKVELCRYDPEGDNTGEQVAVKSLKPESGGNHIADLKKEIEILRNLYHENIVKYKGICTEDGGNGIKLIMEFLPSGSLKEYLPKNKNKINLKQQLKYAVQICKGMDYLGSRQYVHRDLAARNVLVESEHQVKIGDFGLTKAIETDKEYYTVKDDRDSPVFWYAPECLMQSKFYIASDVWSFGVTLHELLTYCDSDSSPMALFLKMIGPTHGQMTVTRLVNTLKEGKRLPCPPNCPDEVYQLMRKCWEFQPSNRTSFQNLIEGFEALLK
Summary of the method: (§1)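 Catalytic-domain human JAK1 (GST-tagged, aa 850-1154) or His-tagged JAK2, baculovirus-expressed, phosphorylated 1 µM biotinylated TK peptide at Km ATP (JAK1 7 µM, 10 mM MgCl2, 50 nM SEB; JAK2 4 µM, 5 mM MgCl2) in pH 7.0 Hepes, 20-30 min RT. EDTA stop; overnight streptavidin-XL665/cryptate HTRF read.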

[2] = biological target: T2, JAK2 (Homo sapiens, UniProt O60674); experiment: JAK kinase assay (HTRF, phosphorylation of synthetic peptide), JAK2; settings: catalytic domain, ATP at Km (4 μM); read-out: JAK2 kinase inhibitory activity (EC50)
T2 construct: All four purified enzymes contain only the catalytic domain; His (N); purchased Carna Biosciences, Inc; host or cells: baculovirus expression system
T2 sequence (O60674 849-1124 limits assumed): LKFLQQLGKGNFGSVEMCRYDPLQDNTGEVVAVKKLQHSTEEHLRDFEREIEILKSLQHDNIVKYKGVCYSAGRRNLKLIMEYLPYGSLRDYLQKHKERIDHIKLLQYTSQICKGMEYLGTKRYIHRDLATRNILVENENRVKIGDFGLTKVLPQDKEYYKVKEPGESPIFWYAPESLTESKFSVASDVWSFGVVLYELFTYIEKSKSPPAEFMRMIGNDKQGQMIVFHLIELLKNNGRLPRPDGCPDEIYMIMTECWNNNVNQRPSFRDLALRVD
Summary of the method: as §1

[3] = biological target: T3, JAK3 (Homo sapiens, UniProt P52333); experiment: JAK kinase assay (HTRF, phosphorylation of synthetic peptide), JAK3; settings: catalytic domain, ATP at Km (2 μM); read-out: JAK3 kinase inhibitory activity (EC50)
T3 construct: All four purified enzymes contain only the catalytic domain; His (N); purchased Carna Biosciences, Inc; host or cells: baculovirus expression system
T3 sequence (P52333 822-1111 limits assumed): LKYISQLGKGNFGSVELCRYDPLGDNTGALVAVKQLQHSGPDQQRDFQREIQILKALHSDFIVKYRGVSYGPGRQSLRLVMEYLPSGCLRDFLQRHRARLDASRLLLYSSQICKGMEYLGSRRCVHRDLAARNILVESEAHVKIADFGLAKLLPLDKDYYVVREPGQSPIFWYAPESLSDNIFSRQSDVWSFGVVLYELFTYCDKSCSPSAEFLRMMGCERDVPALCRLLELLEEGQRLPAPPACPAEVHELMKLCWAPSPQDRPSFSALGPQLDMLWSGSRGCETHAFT

[4] = biological target: T4, TYK2 (Homo sapiens, UniProt P29597); experiment: JAK kinase assay (HTRF, phosphorylation of synthetic peptide), TYK2; settings: catalytic domain, ATP at Km (13 μM); read-out: TYK2 kinase inhibitory activity (EC50)
T4 construct: JAK1 (aa 850-1154) and TYK2 (aa 871-1187) are expressed with an N-terminally fused GST-tag; GST (N); purchased Carna Biosciences, Inc; host or cells: baculovirus expression system
T4 sequence (P29597 871-1187): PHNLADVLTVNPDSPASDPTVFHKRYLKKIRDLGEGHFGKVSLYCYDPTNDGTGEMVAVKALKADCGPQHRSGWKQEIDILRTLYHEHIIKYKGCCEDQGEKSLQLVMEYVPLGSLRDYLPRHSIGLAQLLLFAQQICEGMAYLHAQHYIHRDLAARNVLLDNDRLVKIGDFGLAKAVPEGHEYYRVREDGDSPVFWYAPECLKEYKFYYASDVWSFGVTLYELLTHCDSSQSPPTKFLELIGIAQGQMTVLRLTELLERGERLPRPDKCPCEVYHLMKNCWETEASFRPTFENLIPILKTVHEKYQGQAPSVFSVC
Summary of the method: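 1 µM biotinylated TK peptide at Km ATP in pH 7.0 Hepes, 20-30 min RT. EDTA stop; overnight streptavidin-XL665/cryptate HTRF read.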

SMILES | EC50 [1] [µM] | EC50 [2] [µM] | EC50 [3] [µM] | EC50 [4] [µM]
CN(C[C@@H]1CC(F)(F)CN1S(=O)(=O)CCCC#N)S(=O)(=O)N1CCN(c2ncnc3[nH]ccc23)CC12CC2 [Example 163, N-[[(2S)-1-(3-cyanopropylsulfonyl)-4,4-difluoro-pyrrolidin-2-yl]methyl]-N-methyl-5-(7H-pyrrolo[2,3-d]pyrimidin-4-yl)-5,8-diazaspiro[2.5]octane-8-sulfonamide] | < 0.1 | < 0.1 | < 0.1 | < 0.1
CN(C[C@@H]1CC(F)(F)CN1C(=O)CCC#N)S(=O)(=O)N1CCN(c2ncnc3[nH]ccc23)CC12CC2 [Example 156, N-[[(2S)-1-(3-cyanopropanoyl)-4,4-difluoro-pyrrolidin-2-yl]methyl]-N-methyl-5-(7H-pyrrolo[2,3-d]pyrimidin-4-yl)-5,8-diazaspiro[2.5]octane-8-sulfonamide] | < 0.1 | < 0.1 | < 0.1 | < 0.1
N#CCN(CC#N)S(=O)(=O)N1CCN(c2ncnc3[nH]ccc23)CC12CC2 [Example 145, N,N-bis(cyanomethyl)-5-(7H-pyrrolo[2,3-d]pyrimidin-4-yl)-5,8-diazaspiro[2.5]octane-8-sulfonamide] | < 0.1 | < 0.1 | < 0.1 | 0.1 to 0.5
CN(CCC1CCCCC1)S(=O)(=O)N1CCN(c2ncnc3[nH]ccc23)CC12CC2 [Example 11, 7-(7H-Pyrrolo[2,3-d]pyrimidin-4-yl)-4,7-diaza-spiro[2.5]octane-4-sulfonic acid (2-cyclohexyl-ethyl)-methyl-amide] | < 0.1 | < 0.1 | 0.1 to 0.5 | > 0.5
N#CCCCN(C1COC1)S(=O)(=O)N1CCN(c2ncnc3[nH]ccc23)CC12CC2 [Example 114, N-(3-cyanopropyl)-N-(oxetan-3-yl)-5-(7H-pyrrolo[2,3-d]pyrimidin-4-yl)-5,8-diazaspiro[2.5]octane-8-sulfonamide] | < 0.1 | < 0.1 | < 0.1 | < 0.1
CC(C)N(C)S(=O)(=O)N1CCN(c2ncnc3[nH]ccc23)CC12CC2 [Example 94, N-isopropyl-N-methyl-5-(7H-pyrrolo[2,3-d]pyrimidin-4-yl)-5,8-diazaspiro[2.5]octane-8-sulfonamide] | < 0.1 | < 0.1 | 0.1 to 0.5 | > 0.5

Continued, values first:

EC50 [1] [µM] | EC50 [2] [µM] | EC50 [3] [µM] | EC50 [4] [µM] | SMILES
< 0.1 | < 0.1 | < 0.1 | 0.1 to 0.5 | CN(Cc1ccc(F)cc1)S(=O)(=O)N1CCN(c2ncnc3[nH]ccc23)CC12CC2 [Example 79, N-[(4-fluorophenyl)methyl]-N-methyl-5-(7H-pyrrolo[2,3-d]pyrimidin-4-yl)-5,8-diazaspiro[2.5]octane-8-sulfonamide]
< 0.1 | < 0.1 | 0.1 to 0.5 | 0.1 to 0.5 | CN(C[C@H]1CCCN1C(=O)CCO)S(=O)(=O)N1CCN(c2ncnc3[nH]ccc23)CC12CC2 [Example 190, N-[[(2R)-1-(3-hydroxypropanoyl)pyrrolidin-2-yl]methyl]-N-methyl-5-(7H-pyrrolo[2,3-d]pyrimidin-4-yl)-5,8-diazaspiro[2.5]octane-8-sulfonamide]
< 0.1 | < 0.1 | 0.1 to 0.5 | > 0.5 | CCOC(=O)CN(CCc1ccccc1)S(=O)(=O)N1CCN(c2ncnc3[nH]ccc23)CC12CC2 [Example 46, {Phenethyl-[7-(7H-pyrrolo[2,3-d]pyrimidin-4-yl)-4,7-diaza-spiro[2.5]octane-4-sulfonyl]-amino}-acetic acid ethyl ester]
< 0.1 | < 0.1 | 0.1 to 0.5 | 0.1 to 0.5 | CN(Cc1ccccn1)S(=O)(=O)N1CCN(c2ncnc3[nH]ccc23)CC12CC2 [Example 28, 7-(7H-Pyrrolo[2,3-d]pyrimidin-4-yl)-4,7-diaza-spiro[2.5]octane-4-sulfonic acid methyl-pyridin-2-ylmethyl-amide]
